Test results taken from ChEMBL document CHEMBL5465560, “Selectivity Literature for EUbOPEN Chemogenomic Library” (2024).
One block for each molecule: values may come before it.

What was measured:
[1] = molecular target: Cyclin-dependent kinase 2 (Homo sapiens, UniProt P24941); assay: Selectivity interaction (Kinase panel (DSF assay)) EUB0001559a CDK2
[2] = molecular target: T1, Mitogen-activated protein kinase 15 (Homo sapiens) (UniProt Q8TD08); assay: Selectivity interaction (Kinase panel (literature)) EUB0001199aCl MAPK15; settings: at 1 µM
T1 sequence (whole entry): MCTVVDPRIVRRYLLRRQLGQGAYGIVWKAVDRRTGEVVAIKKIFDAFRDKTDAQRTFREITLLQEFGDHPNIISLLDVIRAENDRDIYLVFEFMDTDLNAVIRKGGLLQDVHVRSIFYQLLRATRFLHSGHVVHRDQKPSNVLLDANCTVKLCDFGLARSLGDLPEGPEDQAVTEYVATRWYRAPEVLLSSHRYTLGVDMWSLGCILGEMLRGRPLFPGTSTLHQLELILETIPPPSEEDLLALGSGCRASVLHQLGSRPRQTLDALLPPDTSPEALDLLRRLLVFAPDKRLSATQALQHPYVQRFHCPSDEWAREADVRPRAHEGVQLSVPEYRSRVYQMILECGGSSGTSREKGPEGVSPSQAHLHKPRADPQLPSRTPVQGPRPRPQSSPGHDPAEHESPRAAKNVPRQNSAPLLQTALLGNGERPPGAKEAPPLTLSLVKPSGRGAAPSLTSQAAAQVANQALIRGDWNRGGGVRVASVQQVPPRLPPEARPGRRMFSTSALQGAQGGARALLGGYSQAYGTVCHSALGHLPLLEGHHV

[3] = molecular target: CDK4/Cyclin D3 (Homo sapiens) (UniProt P11802+P30281); assay: (§1) Selectivity interaction (KinomeScan (DiscoverX)) EUB0000655a CDK4; assay type: protein-complex assay; settings: at 10 µM
[4] = molecular target: Cyclin-dependent kinase 4/cyclin D1 (Homo sapiens) (UniProt P11802+P24385); assay: as §1; assay type: protein-complex assay; settings: at 10 µM
[5] = molecular target: T2, STE20-related kinase adapter protein alpha (Homo sapiens) (UniProt Q7RTN6); assay: Selectivity interaction (ActivX KiNativ screen (ex vivo kinase selectivity in human PBMCs)) EUB0001619a STRADA; assay type: cell-based; settings: PBMC, at 1 µM
T2 sequence (whole entry): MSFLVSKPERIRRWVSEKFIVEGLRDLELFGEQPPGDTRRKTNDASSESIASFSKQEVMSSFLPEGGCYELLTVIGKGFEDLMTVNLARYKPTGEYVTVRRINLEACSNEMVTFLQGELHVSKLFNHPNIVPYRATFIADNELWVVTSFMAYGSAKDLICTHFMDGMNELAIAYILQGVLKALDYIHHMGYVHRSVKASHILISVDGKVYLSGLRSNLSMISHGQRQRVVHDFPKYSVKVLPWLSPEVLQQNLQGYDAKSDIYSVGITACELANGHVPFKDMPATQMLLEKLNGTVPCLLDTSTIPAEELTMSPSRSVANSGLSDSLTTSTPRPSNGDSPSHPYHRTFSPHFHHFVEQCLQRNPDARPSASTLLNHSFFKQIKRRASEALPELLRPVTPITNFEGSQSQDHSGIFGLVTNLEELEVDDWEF

[6] = molecular target: Serine/threonine-protein kinase PAK 6 (Homo sapiens) (UniProt Q9NQU5); assay: Selectivity interaction (KinomeScan (DiscoverX)) EUB0000045b PAK6; settings: at 10 µM
[7] = molecular target: Tyrosine-protein kinase JAK2 (Homo sapiens, UniProt O60674); assay: Selectivity interaction (Kinase panel (Invitrogen)) EUB0000639a JAK2; settings: at 200 nM
[8] = molecular target: Microtubule-associated serine/threonine-protein kinase 1 (Homo sapiens) (UniProt Q9Y2H9); assay: Selectivity interaction (KinomeScan (DiscoverX)) EUB0000229b MAST1; settings: at 10 µM
[9] = molecular target: T3, Serine/threonine-protein kinase 36 (Homo sapiens) (UniProt Q9NRP7); assay: Selectivity interaction (KinomeScan (DiscoverX)) EUB0001049a STK36; settings: at 1 µM
T3 sequence (whole entry): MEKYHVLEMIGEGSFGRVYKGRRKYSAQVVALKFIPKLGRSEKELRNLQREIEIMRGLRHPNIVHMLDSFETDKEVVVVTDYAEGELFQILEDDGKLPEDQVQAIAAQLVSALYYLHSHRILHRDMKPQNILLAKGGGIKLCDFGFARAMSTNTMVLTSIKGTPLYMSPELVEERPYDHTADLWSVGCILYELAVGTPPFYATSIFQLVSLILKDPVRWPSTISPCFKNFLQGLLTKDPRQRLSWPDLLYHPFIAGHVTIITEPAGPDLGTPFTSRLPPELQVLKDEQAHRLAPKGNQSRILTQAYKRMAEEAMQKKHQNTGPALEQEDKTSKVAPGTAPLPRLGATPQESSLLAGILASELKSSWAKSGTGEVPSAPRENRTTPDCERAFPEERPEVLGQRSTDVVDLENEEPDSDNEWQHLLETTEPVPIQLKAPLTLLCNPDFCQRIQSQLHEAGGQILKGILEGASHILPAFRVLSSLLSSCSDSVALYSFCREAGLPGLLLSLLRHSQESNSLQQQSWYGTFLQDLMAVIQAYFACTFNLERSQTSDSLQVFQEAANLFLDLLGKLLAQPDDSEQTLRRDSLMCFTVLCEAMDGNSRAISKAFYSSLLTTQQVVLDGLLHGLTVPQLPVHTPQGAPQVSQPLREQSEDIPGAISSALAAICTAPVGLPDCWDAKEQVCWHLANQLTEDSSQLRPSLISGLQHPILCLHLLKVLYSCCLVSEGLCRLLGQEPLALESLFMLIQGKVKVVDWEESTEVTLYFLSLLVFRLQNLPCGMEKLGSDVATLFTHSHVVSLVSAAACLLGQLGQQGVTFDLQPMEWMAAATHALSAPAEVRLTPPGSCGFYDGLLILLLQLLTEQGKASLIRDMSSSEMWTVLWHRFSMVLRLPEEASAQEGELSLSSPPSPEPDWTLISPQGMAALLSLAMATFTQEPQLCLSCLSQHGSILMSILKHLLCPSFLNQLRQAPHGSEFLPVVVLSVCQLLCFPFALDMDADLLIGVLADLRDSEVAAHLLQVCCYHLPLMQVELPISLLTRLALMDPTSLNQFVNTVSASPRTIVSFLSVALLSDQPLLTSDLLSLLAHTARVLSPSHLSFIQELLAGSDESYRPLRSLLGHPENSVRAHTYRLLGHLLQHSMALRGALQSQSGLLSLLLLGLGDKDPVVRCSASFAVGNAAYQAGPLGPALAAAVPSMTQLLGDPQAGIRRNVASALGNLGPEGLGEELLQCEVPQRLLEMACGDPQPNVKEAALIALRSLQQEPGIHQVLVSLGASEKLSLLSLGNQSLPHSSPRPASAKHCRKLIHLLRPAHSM

[10] = molecular target: Serine/threonine-protein kinase RIO2 (Homo sapiens) (UniProt Q9BVS4); assay: Selectivity interaction (KinomeScan (DiscoverX)) EUB0000092b RIOK2; settings: at 10 µM
Chain of Serine/threonine-protein kinase RIO2 (Homo sapiens) (Q9BVS4 whole entry, looked up): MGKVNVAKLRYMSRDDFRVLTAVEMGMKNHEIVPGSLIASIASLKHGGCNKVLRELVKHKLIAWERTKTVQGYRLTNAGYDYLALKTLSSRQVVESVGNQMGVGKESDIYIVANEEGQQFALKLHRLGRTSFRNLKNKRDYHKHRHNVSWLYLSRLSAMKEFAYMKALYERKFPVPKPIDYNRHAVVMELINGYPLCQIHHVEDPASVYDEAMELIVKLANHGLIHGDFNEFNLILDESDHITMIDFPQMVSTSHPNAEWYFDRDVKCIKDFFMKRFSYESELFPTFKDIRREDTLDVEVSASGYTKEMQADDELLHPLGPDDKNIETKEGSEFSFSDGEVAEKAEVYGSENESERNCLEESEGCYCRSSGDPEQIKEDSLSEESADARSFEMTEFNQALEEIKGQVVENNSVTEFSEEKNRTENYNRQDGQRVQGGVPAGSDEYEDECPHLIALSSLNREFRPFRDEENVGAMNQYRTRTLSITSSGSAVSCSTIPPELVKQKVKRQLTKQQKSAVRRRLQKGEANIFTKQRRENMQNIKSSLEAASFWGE

Chain of Serine/threonine-protein kinase PAK 6 (Homo sapiens) (Q9NQU5 whole entry, looked up): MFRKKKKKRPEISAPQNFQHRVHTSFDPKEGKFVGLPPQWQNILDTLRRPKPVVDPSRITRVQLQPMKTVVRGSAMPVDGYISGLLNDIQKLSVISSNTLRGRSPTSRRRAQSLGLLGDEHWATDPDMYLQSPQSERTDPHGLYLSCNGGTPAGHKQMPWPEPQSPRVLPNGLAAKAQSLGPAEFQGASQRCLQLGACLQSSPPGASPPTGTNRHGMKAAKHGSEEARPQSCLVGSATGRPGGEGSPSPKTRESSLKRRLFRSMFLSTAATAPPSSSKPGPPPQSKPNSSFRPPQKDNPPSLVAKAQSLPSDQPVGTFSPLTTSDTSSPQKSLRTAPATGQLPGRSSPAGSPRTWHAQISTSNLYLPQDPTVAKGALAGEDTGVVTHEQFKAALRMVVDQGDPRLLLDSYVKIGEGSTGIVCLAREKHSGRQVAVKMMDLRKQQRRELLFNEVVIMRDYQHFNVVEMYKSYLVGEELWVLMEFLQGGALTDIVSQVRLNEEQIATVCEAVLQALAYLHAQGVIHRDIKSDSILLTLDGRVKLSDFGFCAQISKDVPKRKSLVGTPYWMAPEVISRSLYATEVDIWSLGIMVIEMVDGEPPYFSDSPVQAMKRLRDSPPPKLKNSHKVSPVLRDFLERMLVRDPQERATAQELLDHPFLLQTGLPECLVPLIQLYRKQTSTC
Chain of Tyrosine-protein kinase JAK2 (O60674 whole entry): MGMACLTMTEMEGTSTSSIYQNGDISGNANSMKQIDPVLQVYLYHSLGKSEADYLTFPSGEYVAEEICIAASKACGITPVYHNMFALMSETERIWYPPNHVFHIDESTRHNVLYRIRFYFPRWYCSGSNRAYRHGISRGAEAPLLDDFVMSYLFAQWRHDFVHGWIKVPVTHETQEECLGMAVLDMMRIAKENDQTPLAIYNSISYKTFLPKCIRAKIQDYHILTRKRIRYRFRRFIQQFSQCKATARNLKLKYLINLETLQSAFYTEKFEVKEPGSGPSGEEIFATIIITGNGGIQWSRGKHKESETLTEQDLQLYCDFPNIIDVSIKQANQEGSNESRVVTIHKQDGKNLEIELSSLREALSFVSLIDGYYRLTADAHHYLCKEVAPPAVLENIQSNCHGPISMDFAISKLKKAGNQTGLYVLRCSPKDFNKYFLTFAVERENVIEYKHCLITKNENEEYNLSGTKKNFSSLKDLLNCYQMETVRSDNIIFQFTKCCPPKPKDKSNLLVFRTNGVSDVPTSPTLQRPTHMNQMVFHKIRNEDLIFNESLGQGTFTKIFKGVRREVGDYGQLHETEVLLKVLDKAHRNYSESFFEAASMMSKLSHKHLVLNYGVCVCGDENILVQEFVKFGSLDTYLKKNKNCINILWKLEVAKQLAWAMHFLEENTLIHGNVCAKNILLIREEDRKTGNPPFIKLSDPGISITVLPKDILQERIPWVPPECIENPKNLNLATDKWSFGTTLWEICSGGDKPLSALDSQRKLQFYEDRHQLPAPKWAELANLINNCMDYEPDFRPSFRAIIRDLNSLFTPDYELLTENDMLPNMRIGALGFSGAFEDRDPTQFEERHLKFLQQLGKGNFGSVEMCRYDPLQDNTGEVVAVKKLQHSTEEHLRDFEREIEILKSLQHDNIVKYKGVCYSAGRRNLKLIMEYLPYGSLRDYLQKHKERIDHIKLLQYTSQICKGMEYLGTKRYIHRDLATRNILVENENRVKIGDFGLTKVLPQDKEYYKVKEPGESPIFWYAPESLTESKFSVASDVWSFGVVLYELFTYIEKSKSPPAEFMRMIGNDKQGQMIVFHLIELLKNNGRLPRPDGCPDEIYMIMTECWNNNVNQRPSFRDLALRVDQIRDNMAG
Chain of Microtubule-associated serine/threonine-protein kinase 1 (Homo sapiens) (Q9Y2H9 whole entry, looked up): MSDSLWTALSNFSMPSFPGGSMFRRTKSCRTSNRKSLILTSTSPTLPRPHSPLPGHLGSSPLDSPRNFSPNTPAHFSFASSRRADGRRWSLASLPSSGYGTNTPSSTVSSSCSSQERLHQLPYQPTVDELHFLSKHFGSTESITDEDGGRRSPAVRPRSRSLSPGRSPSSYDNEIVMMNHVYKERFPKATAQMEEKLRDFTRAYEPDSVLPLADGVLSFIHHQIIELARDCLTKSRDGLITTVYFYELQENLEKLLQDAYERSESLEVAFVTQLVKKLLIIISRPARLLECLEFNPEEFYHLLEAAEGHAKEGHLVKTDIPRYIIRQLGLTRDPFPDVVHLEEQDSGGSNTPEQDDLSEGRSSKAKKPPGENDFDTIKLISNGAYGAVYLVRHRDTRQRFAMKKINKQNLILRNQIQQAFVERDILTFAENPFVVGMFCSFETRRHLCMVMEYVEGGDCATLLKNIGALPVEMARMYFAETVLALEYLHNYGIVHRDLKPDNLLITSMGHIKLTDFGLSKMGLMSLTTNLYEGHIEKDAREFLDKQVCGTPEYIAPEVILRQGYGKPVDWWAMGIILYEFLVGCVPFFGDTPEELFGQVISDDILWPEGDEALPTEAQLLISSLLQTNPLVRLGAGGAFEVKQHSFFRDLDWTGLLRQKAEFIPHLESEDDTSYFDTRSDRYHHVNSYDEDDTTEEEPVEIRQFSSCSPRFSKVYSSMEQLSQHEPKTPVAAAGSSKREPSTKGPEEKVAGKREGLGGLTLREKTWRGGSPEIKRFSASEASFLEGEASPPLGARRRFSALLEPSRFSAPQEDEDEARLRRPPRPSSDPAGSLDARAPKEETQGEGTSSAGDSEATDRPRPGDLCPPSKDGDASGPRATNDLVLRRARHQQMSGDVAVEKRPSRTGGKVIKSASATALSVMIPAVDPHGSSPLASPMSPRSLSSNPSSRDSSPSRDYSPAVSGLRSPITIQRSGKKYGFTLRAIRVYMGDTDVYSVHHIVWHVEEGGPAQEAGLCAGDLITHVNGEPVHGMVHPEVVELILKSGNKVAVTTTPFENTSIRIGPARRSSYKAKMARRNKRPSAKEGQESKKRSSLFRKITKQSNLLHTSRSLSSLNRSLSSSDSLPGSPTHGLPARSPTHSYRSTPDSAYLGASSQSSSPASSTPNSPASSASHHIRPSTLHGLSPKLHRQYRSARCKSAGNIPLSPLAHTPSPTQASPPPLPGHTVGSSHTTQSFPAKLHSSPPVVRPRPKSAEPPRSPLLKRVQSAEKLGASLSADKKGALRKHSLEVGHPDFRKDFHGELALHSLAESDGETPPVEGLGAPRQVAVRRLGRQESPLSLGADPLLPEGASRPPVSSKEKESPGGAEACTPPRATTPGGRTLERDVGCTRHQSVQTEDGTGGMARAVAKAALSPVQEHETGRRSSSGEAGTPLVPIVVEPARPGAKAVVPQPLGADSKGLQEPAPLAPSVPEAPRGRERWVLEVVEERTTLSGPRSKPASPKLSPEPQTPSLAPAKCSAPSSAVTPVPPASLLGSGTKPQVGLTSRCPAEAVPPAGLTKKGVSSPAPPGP

dTM [1]: -0.3 K
Compound: CN(C(=O)c1cnn2cccnc12)c1cc2c(cc1N1CCOCC1)C(=O)N(C[C@@H](F)C(C)(C)O)C2

Compound: CN1Cc2nccc(-c3cn(C)nc3-c3ccc(F)cc3)c2C1=O
% of inhibition [2]: 10%

Compound: CN(C)CCOc1ccc(-c2nc(-c3ccncc3)c(-c3ccc4c(c3)CC/C4=N\O)[nH]2)cc1
% of control [3]: 86%
% of control [4]: 58%

Compound: N#Cc1cccc(-c2c[nH]c3ncnc(N4CCOCC4)c23)c1
% of inhibition [5]: 1%

Compound: C=CC(=O)Nc1cc(-n2c(=O)ccc3cnc4ccc(-c5ccc(NS(C)(=O)=O)cc5)cc4c32)ccc1C
% of control [6]: 100%

% of inhibition [7]: 17.6%
Compound: CC[C@@H]1[C@H](F)C(=O)N[C@@H]1COc1nccc2cc(C(N)=O)c(OC)cc12 [ZIMLOVISERTIB]

Compound: COc1cc(N(C)c2ccnc3ccc(C(F)(F)F)cc23)cc(OC)c1OC
% binding [8]: 85%

Compound: COc1cc(Nc2nc(C)cc(-c3cnn4nc(OC)ccc34)n2)cc(C(F)(F)F)c1
% of control [9]: 99%

Compound: CCC(=O)N1CCN(c2ccc(-n3c(=O)ccc4cnc5ccc(-c6cnc7ccccc7c6)cc5c43)cc2C(F)(F)F)CC1
% of control [10]: 24%
